Measured values: PubChem BioAssay AID463204 (Broad Institute, 2010)
Calls of active or inactive are those of the source.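 How the source made its calls: active means AC50 no more than ten times the top concentration tested, that is within one log above it; inconclusive means flat curve fit with activity between 30% and 70%, or invalid poor fit; inactive means AC50 beyond ten times the top tested dose.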

The compounds below were run on S. cerevisiae Mot1-301 ts growth rescue, BacTiter-Glo ATP luminescence (assay: restored Mot1-301 yeast growth at 38.5C – whole organism, S. cerevisiae, Mot1-301 ts mutant, luminescence, dose retest, SUMOylation pathway inhibitor project, confirmation (AID 463204);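 further: growth at restrictive 38.5 degrees C of Mot1-301 OY566 strain; actives raise luminescence by restoring growth of the ts mutant at high temperature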).
With `Cc1ccc2nc(NC(=O)CNS(=O)(=O)c3ccc(Br)s3)sc2c1` the AC50 was > 42 µM (inactive).
`N#CC1=C(N)OC2=C(C(=O)CCC2)C1C1CC=CCC1` (stereo not given) was tested, and the AC50 was > 42 µM (inactive).
In the case of `CCOC(=O)c1[nH]c2ccc(F)cc2c1NC(=O)CCN1CCOCC1`, the AC50 is reported as > 42 µM (inactive).
With `N#CCCN(Cc1cccnc1)C(=O)Nc1cccc(Cl)c1` the AC50 was > 42 µM (inactive).
In the case of `COc1ccc2c(c1)OC[C@H]1[C@H]2N2C(=O)c3ccccc3NC(=O)[C@@]2(C)[C@H]1c1ccccc1`, the AC50 is reported as > 42 µM (inactive).
`CCC(C)(C(=O)NC1CCCC1)N(C(=O)c1ccccn1)c1ccc(C)cc1` (stereo not given) was tested, and the AC50 was > 42 µM (inactive).
For `COc1ccc(/C=C(/C#N)S(=O)(=O)c2ccc(C)cc2)cc1`, the AC50 was > 21 µM (inactive).
`Cc1ccc(-c2cc(C(=O)O)c3ccccc3n2)s1` was tested, and the AC50 was > 42 µM (inactive).
For `CC1(C)CC(=O)C2=C(C1)OC(N)=C(C#N)C21C(=O)N(CN2CCOCC2)c2ccccc21` (stereo not given), the AC50 was > 42 µM (inactive).
`Fc1ccc2nc(C3CCN(Cc4nc(CC5CC5)no4)CC3)[nH]c2c1` was tested, and the AC50 was > 42 µM (inactive).
For `CCCNC(=O)Cn1sc2nc(C)cc(C)c2c1=O`, the AC50 was > 42 µM (inactive).
For `CCN1CCN(CC(=O)Nc2cccc(C)c2C)C(=O)C1=O`, the AC50 was > 42 µM (inactive).
With `CCN1C(=S)N[C@@H](c2cccs2)C(C(=O)OC)=C1C` the AC50 was > 42 µM (inactive).
`Cc1[nH]n(-c2ccccc2)c(=O)c1C(C[N+](=O)[O-])c1ccc(Br)cc1` (stereo not given) was tested, and the AC50 was > 42 µM (inactive).
`CN(C)C1(c2nnnn2-c2ccc(Cl)cc2)CCCCC1` showed an AC50 of 27.9 µM.
`CCCCCCCCCCOC(=O)Cn1c(COc2ccccc2OC)[n+](C)c2ccccc21` gave an AC50 of 13.4 µM.
In the case of `Cn1c(Cn2nnc3ccccc32)nnc1SCC(=O)c1ccc(F)cc1`, the AC50 is reported as > 42 µM (inactive).
For `C/C(CC(=O)Nc1cccc(Cl)c1Cl)=N\NC(=O)c1ccccc1C`, the AC50 was > 42 µM (inactive).
In the case of `COC(=O)c1cccc(NC(=O)CN(c2ccc3c(c2)OCO3)S(C)(=O)=O)c1C`, the AC50 is reported as > 42 µM (inactive).
`COc1ccc(C(=O)N(CCc2ccccc2)Cc2ccccc2)c(OC)n1` was tested, and the AC50 was > 42 µM (inactive).
`CCOC(=O)c1ccc(NC(=O)CC2Sc3ncnn3C2=O)cc1` (stereo not given) showed an AC50 of 6.96 µM.
`O=C(CCSc1nnnn1-c1ccccc1)N1CCOCC1` was tested, and the AC50 was > 42 µM (inactive).
In the case of `CSCC[C@H](NC(=O)CC(C)(C)C)c1nc2ccccc2[nH]1`, the AC50 is reported as > 42 µM (inactive).
For `CC1(C)CC(=O)C2=C(C1)Oc1ncn(CCO)c(=N)c1C2c1ccccc1` (stereo not given), the AC50 was > 42 µM (inactive).
`O=C(CCc1nc2sc3c(c2c(=O)[nH]1)CCCC3)N1CCN(c2ccccc2)CC1` was tested, and the AC50 was > 42 µM (inactive).
`CCCOC(=O)c1ccc(O)c(OC)c1` was tested, and the AC50 was > 42 µM (inactive).
`Clc1ccc(N=c2ssnc2Cl)nc1` showed an AC50 of 0.78 µM.
With `Cc1ccc(C(=O)NCC(=O)Nc2ccc3c(c2)OCCO3)cc1` the AC50 was > 21 µM (inactive).
In the case of `COc1ccccc1N1CCN(C(=O)c2sc3ncnc(N4CCN(c5ccccn5)CC4)c3c2C)CC1`, the AC50 is reported as > 42 µM (inactive).
`O=C1CCC(C(=O)N2CCN(c3ccccc3)CC2)CN1CC1CCCCC1` (stereo not given) was tested, and the AC50 was > 42 µM (inactive).
For `CCC1CCCCN1C(=O)CSc1nc2c([nH]c3ccccc32)c(=O)n1C` (stereo not given), the AC50 was > 42 µM (inactive).
Work on `O=C1CN(C(=O)c2ccccc2F)C(c2ccccc2)c2cc(Cl)ccc2N1` (stereo not given) yielded an AC50 of 1.84 µM.
In the case of `CCNC(=O)COc1ccc(S(=O)(=O)Nc2ccccc2)cc1`, the AC50 is reported as > 21 µM (inactive).
With `NC(=O)c1nsc(C(=O)N(Cc2ccc(F)cc2)C(C(=O)NC2CCCC2)c2ccco2)c1N` (stereo not given) the AC50 was > 42 µM (inactive).
`COc1cc2nc(CSc3ncn[nH]3)[nH]c(=O)c2cc1OC` was tested, and the AC50 was > 42 µM (inactive).
With `NNC(=O)c1oc2nc(-c3ccccc3)cc(-c3ccccc3)c2c1N` the AC50 was > 42 µM (inactive).
`O=c1[nH]nc(Cc2ccc(-c3ccccc3Cl)o2)c2ccccc12` was tested, and the AC50 was > 42 µM (inactive).
In the case of `c1ccc2c(c1)OCCOCCOc1ccccc1OCCOCCO2`, the AC50 is reported as > 42 µM (inactive).
For `COc1ccc(NC(=O)C2CCCN2S(=O)(=O)c2cccc3cccnc23)cc1OC` (stereo not given), the AC50 was > 42 µM (inactive).
For `CC(C)(C)C(=O)Nc1ccc(C(=O)NCc2cccnc2)cc1`, the AC50 was > 42 µM (inactive).
`CCc1ccc2c(c1)C(c1ccc([N+](=O)[O-])cc1)=NNC(c1ccc(C)cc1)=N2` was tested, and the AC50 was > 42 µM (inactive).
`COc1ccccc1OCCCn1cc(C#N)c2ccccc21` was tested, and the AC50 was > 42 µM (inactive).
In the case of `CCCn1c(SC(C)C(=O)NCC2CCCO2)nc2sc(CC)cc2c1=O` (stereo not given), the AC50 is reported as > 42 µM (inactive).
`CC1CC(C)(C)N2C(=O)C3(Nc4ccccc4S3)c3cccc1c32` (stereo not given) gave an AC50 of 3.15 µM.
`Cc1c(C(=O)N2CCCC2)c(S(=O)(=O)Nc2cccc(Br)c2)c(C)n1C` was tested, and the AC50 was > 42 µM (inactive).
With `N#CC(C#N)=C1C=CC=CN1/C(=C\c1ccccc1Cl)C(=O)c1ccccc1` the AC50 was 2.03 µM.
For `CCOc1ccc(C(=O)c2cccs2)cc1`, the AC50 was > 42 µM (inactive).
Compound `Cn1c(SCC(=O)N/N=C/c2ccc([N+](=O)[O-])s2)nnc1-c1ccc(Cl)cc1` has an AC50 of 10.2 µM.
With `O=C(CSc1nc2ccc(Nc3nc(N4CCOCC4)nc(N4CCOCC4)n3)cc2s1)N1CCOCC1` the AC50 was > 42 µM (inactive).
In the case of `CCCCOc1ccc(C(=O)Nc2ccc(CN3CCOCC3)cc2)cc1`, the AC50 is reported as > 42 µM (inactive).
`COc1ccc(C2=C(N)c3ccccc3C2=O)cc1` was tested, and the AC50 was > 42 µM (inactive).
For `Cc1cc(C)cc(C(=O)NC(CC(N)=O)c2ccc(NCCN3CCOCC3)c([N+](=O)[O-])c2)c1` (stereo not given), the AC50 was > 42 µM (inactive).
For `CSc1ccccc1NC(=O)COc1nsnc1N1CCOCC1`, the AC50 was > 42 µM (inactive).
With `Cc1cc(NC(=O)c2ccccc2F)n(C(C)(C)C)n1` the AC50 was > 42 µM (inactive).
In the case of `CCC(=O)Nc1ccc(Br)c(Cl)c1`, the AC50 is reported as > 42 µM (inactive).
`c1ccc(-c2nc(N3CCOCC3)c3ccccc3n2)nc1` was tested, and the AC50 was > 42 µM (inactive).
With `Cc1cc(OCC(=O)NCC2CCC(C(=O)O)CC2)c2c(C)c(C)c(=O)oc2c1` (stereo not given) the AC50 was > 42 µM (inactive).
In the case of `CC/C(=N\NC(=O)c1nnn(-c2nonc2N)c1-c1cccs1)c1ccccc1`, the AC50 is reported as > 42 µM (inactive).
With `Cc1nn(CC(=O)Nc2ccccn2)c(C)c1[N+](=O)[O-]` the AC50 was > 42 µM (inactive).
`CCCCCCOc1ccc(N2C(=O)CC(N3CCC(C(=O)OCC)CC3)C2=O)cc1` (stereo not given) was tested, and the AC50 was 4.96 µM.
For `Cc1ccc(NC(=O)N[C@H](C(=O)O)C(C)C)c(C)c1`, the AC50 was > 42 µM (inactive).
For `CN(C)/C(CN1CCCCC1)=C1\N=C(c2ccccc2)OC1=O`, the AC50 was > 42 µM (inactive).
`O=C(O)c1ccc(COc2c(F)c(F)cc(F)c2F)cc1` was tested, and the AC50 was > 42 µM (inactive).
With `COc1ccc(S(=O)(=O)N2CCCOC2CNC(=O)C(=O)NCCCN2CCOCC2)cc1C` (stereo not given) the AC50 was > 42 µM (inactive).
For `CC(=O)Nc1ccc(S(=O)(=O)Nc2ccc(S(=O)(=O)Nc3ncccn3)cc2)cc1`, the AC50 was > 42 µM (inactive).
`Cc1[nH]c2ccccc2c1/C=N/NC(=O)c1cccc(Br)c1` was tested, and the AC50 was > 42 µM (inactive).
`Cc1nc2c3ccccc3nc(NNC(=O)CCC(=O)N3CCCC(C)C3)n2n1` (stereo not given) was tested, and the AC50 was > 42 µM (inactive).
With `CCCCCCC(C)n1[nH]c(=O)c2c(C)cc(=O)[nH]c21` (stereo not given) the AC50 was > 42 µM (inactive).
For `COc1cc(NC(=O)c2ccccc2F)c(OC)cc1NC(=O)CN1CCCCC1`, the AC50 was > 42 µM (inactive).
`N#CC1=C(SCC(N)=O)NC(=O)CC1c1ccccc1Cl` (stereo not given) was tested, and the AC50 was 28.4 µM.
`COc1ccc(NC(=O)CN(C)C(=O)/C=C/c2cn(-c3ccccc3)nc2-c2ccc(C)cc2)cc1` was tested, and the AC50 was > 42 µM (inactive).
For `CCCc1cc(=S)n2c([nH]c3ccccc32)c1C#N`, the AC50 was > 42 µM (inactive).
For `CCN(C(=O)Cn1c(=O)oc2ccccc21)c1cccc(C)c1`, the AC50 was > 42 µM (inactive).
In the case of `O=C1CC(N(CCc2ccccc2)C(=S)Nc2ccccc2)C(=O)N1c1ccc(F)cc1` (stereo not given), the AC50 is reported as > 42 µM (inactive).
In the case of `CSc1ccc(CCNC(=O)C2CCCN(S(=O)(=O)N3CCOCC3)C2)cc1` (stereo not given), the AC50 is reported as > 42 µM (inactive).
For `O=c1c2ccccc2c2ccccc2c(=O)n1-c1ccccc1`, the AC50 was > 42 µM (inactive).
In the case of `Cc1c(C(=O)N2CCN(CCc3ccccc3)CC2)oc2ccccc12`, the AC50 is reported as > 42 µM (inactive).
`Cc1ccn2cc(-c3cnoc3C)nc2c1` was tested, and the AC50 was > 42 µM (inactive).
In the case of `Cc1ccccc1NC(=O)COC(=O)C1C2CC3OC(=O)C1C3C2` (stereo not given), the AC50 is reported as > 42 µM (inactive).
In the case of `COc1cc([N+](=O)[O-])cc(/C=N/NC(=O)c2cc(C)nc3ccccc23)c1O`, the AC50 is reported as > 42 µM (inactive).
For `CCOC(=O)N1CCN(S(=O)(=O)c2ccc(Br)s2)CC1`, the AC50 was > 42 µM (inactive).
In the case of `CCNc1nc(NCC)nc(SCCOC(=O)Nc2ccccc2)n1`, the AC50 is reported as > 42 µM (inactive).
For `C/C(=N\NC(=S)Nc1ccccc1)C1Cc2ccccc2C(=O)O1` (stereo not given), the AC50 was > 42 µM (inactive).
For `COC(=O)C(CC(C)C)NC(=O)CNC(=O)c1ccccc1C` (stereo not given), the AC50 was > 42 µM (inactive).
`COc1ccc(CCC(=O)Nc2ccc3c(c2)OCO3)cc1` was tested, and the AC50 was > 42 µM (inactive).
`C[N+](C)(C)CC(=O)Nc1ccc(Cl)cc1C(=O)c1ccccc1` was tested, and the AC50 was > 42 µM (inactive).
In the case of `COC(=O)C1(Cc2cc(-c3ccccc3)no2)CCN(C(=O)OC(C)(C)C)CC1`, the AC50 is reported as > 42 µM (inactive).
In the case of `CCOC(=O)C1CCCN(C(=O)c2cc(-c3ccc(F)cc3)nc3ccccc23)C1` (stereo not given), the AC50 is reported as > 42 µM (inactive).
With `CC1CCCCN1C(=O)C(Cc1ccccc1)N1C(=O)C2CCCCC2C1=O` (stereo not given) the AC50 was 32.5 µM.
`COC(CNC(=O)c1cn(C)c2ccc(S(=O)(=O)N3CCOCC3)cc2c1=O)OC` was tested, and the AC50 was > 42 µM (inactive).
In the case of `Cc1nc(SCC(=O)O)n[nH]1`, the AC50 is reported as > 42 µM (inactive).
With `COc1ccc(N(C(=O)c2ccncc2)S(=O)(=O)c2ccc(F)cc2)cc1` the AC50 was > 42 µM (inactive).
For `COc1ccc2nc(NC(=O)c3cc(S(=O)(=O)N4CCOCC4)ccc3C)sc2c1`, the AC50 was > 42 µM (inactive).
For `CCOC(=O)c1sc2ncnc(N3CCN(c4ccc(OC)cc4)CC3)c2c1C`, the AC50 was > 42 µM (inactive).
Work on `CCOC(=O)C1=Nc2ccccc2C1=[N+]=[N-]` yielded an AC50 of 36.7 µM.
In the case of `O=C(O)c1cc(Oc2ccc(C(F)(F)F)cc2Cl)ccc1[N+](=O)[O-]`, the AC50 is reported as > 42 µM (inactive).
In the case of `O=C(N/N=C/c1ccc(Cl)s1)c1ccccc1[N+](=O)[O-]`, the AC50 is reported as > 42 µM (inactive).
`CC(NC(=O)C1CCCN(S(=O)(=O)N2CCOCC2)C1)c1ccccc1` (stereo not given) was tested, and the AC50 was > 42 µM (inactive).
In the case of `Cc1cc(C)c(S(=O)(=O)c2cccc(C)c2C)c(=O)[nH]1`, the AC50 is reported as > 42 µM (inactive).
`CN(CC(=O)Nc1sccc1C#N)Cc1ccccc1` was tested, and the AC50 was > 42 µM (inactive).
